Measurements from paper PMC4773904 (The New England journal of medicine, 2015).

Legend:
[1] = tested on: metastatic ALK-rearranged NSCLC; test: Case report: treatment course of a patient with metastatic ALK-rearranged NSCLC; format: in vivo, human; conditions: first restaging CT after 5 weeks of treatment, phase 1 trial, single patient
[2] = tested on: Ba/F3 cells expressing EML4-ALK L1198F; test: Ba/F3 cell-survival assay; format: cell-based
[3] = tested on: ALK; conditions: in cell lines; cited from earlier work
[4] = tested on: Ba/F3 cells expressing EML4-ALK C1156Y–L1198F; test: Ba/F3 cell-survival assay; format: cell-based
[5] = tested on: previously treated NSCLC; conditions: patients with previously treated NSCLC, phase 3 trial; cited from earlier work

SMILES | Reduction in tumor burden [1] [%] | Sensitivity in cell-survival assay (in words) [2] | Potency against ALK [3] | Sensitivity in cell-survival assay (in words) [4] | Response rate [5] [%]
C[C@H]1Oc2cc(cnc2N)-c2c(nn(C)c2C#N)CN(C)C(=O)c2ccc(F)cc21 [lorlatinib, (10R)-7-amino-12-fluoro-2,10,16-trimethyl-15-oxo-10,15,16,17-tetrahydro-2H-8,4-(metheno)pyrazolo [4,3-h][2,5,11]-benzoxadiazacyclotetra decine-3-carbonitrile] | 41 | variable degrees of resistance | subnanomolar to low nanomolar | resistant | 
CCC1=C[C@@H]2CN(C1)Cc1c([nH]c3ccccc13)[C@@](C(=O)OC)(c1cc3c(cc1OC)N(C)[C@H]1[C@@](O)(C(=O)OC)[C@H](OC(C)=O)[C@]4(CC)C=CCN5CC[C@]31[C@@H]54)C2 [vinorelbine] |  |  |  |  | 0.8
